Laboratory results published in publication PMC7181660, “A novel specific PERK activator reduces toxicity and extends survival in Huntington's disease models” (Scientific Reports, 2020).

What was measured:
Experiment in all cases: biochemical
Type in all cases: biochemical
panel of 391 kinases [1] = target: panel of 391 kinases (Homo sapiens, UniProt P00519); settings: ABL1, MK-28 1 µM, ATP 1 µM
panel of 391 kinases [2] = target: panel of 391 kinases (Homo sapiens, UniProt Q16644); settings: MAPKAPK3, MK-28 1 µM, ATP 1 µM
panel of 391 kinases [3] = target: panel of 391 kinases (Homo sapiens, UniProt P54756); settings: EPHA5, MK-28 1 µM, ATP 1 µM
panel of 391 kinases [4] = target: panel of 391 kinases (Homo sapiens, UniProt P17252); settings: PKCa, MK-28 1 µM, ATP 1 µM
panel of 391 kinases [5] = target: panel of 391 kinases (Homo sapiens, UniProt Q9UPE1); settings: MSSK1/STK23, MK-28 1 µM, ATP 1 µM
panel of 391 kinases [6] = target: panel of 391 kinases (Homo sapiens, UniProt Q02156); settings: PKCepsilon, MK-28 1 µM, ATP 1 µM
panel of 391 kinases [7] = target: panel of 391 kinases (Homo sapiens, UniProt P42681); settings: TXK, MK-28 1 µM, ATP 1 µM
panel of 391 kinases [8] = target: panel of 391 kinases (Homo sapiens, UniProt P43403); settings: ZAP70, MK-28 1 µM, ATP 1 µM
panel of 391 kinases [9] = target: panel of 391 kinases (Homo sapiens, UniProt Q9P289); settings: MST4, MK-28 1 µM, ATP 1 µM
panel of 391 kinases [10] = target: panel of 391 kinases (Homo sapiens, UniProt Q9H4B4); settings: PLK3, MK-28 1 µM, ATP 1 µM
panel of 391 kinases [11] = target: panel of 391 kinases (Homo sapiens, UniProt O94806); settings: PKCnu/PRKD3, MK-28 1 µM, ATP 1 µM
panel of 391 kinases [12] = target: panel of 391 kinases (Homo sapiens, UniProt P53350); settings: PLK1, MK-28 1 µM, ATP 1 µM
panel of 391 kinases [13] = target: panel of 391 kinases (Homo sapiens, UniProt Q8TD19); settings: NEK9, MK-28 1 µM, ATP 1 µM
panel of 391 kinases [14] = target: panel of 391 kinases (Homo sapiens, UniProt O00444); settings: PLK4/SAK, MK-28 1 µM, ATP 1 µM
panel of 391 kinases [15] = target: panel of 391 kinases (Homo sapiens, UniProt Q16512); settings: PKN1/PRK1, MK-28 1 µM, ATP 1 µM
panel of 391 kinases [16] = target: panel of 391 kinases (Homo sapiens, UniProt Q15118); settings: kinase PDK1/PDHK1, compound at 1 µM, single dose in duplicates, 1 µM ATP
panel of 391 kinases [17] = target: panel of 391 kinases (Homo sapiens, UniProt Q02763); settings: TIE2/TEK, MK-28 1 µM, ATP 1 µM
panel of 391 kinases [18] = target: panel of 391 kinases (Homo sapiens, UniProt O00238); settings: ALK6/BMPR1B, MK-28 1 µM, ATP 1 µM
panel of 391 kinases [19] = target: panel of 391 kinases (Homo sapiens, UniProt P36888); settings: FLT3, MK-28 1 µM, ATP 1 µM
panel of 391 kinases [20] = target: panel of 391 kinases (Homo sapiens, UniProt O60674); settings: JAK2, MK-28 1 µM, ATP 1 µM
panel of 391 kinases [21] = target: panel of 391 kinases (Homo sapiens, UniProt Q9BYP7); settings: WNK3, MK-28 1 µM, ATP 1 µM
panel of 391 kinases [22] = target: panel of 391 kinases (Homo sapiens, UniProt Q9UF33); settings: EPHA6, MK-28 1 µM, ATP 1 µM
panel of 391 kinases [23] = target: panel of 391 kinases (Homo sapiens, UniProt P53778); settings: P38g, MK-28 1 µM, ATP 1 µM
panel of 391 kinases [24] = target: panel of 391 kinases (Homo sapiens, UniProt Q12866); settings: c-MER, MK-28 1 µM, ATP 1 µM
panel of 391 kinases [25] = target: panel of 391 kinases (Homo sapiens, UniProt Q04912); settings: RON/MST1R, MK-28 1 µM, ATP 1 µM
panel of 391 kinases [26] = target: panel of 391 kinases (Homo sapiens, UniProt O14578); settings: STK21/CIT, MK-28 1 µM, ATP 1 µM
[27] = read-out: % Enzyme Activity (relative to DMSO controls)

Compound: CN(/N=C\c1ccc(O)c(O)c1)c1nc(-c2ccccc2)cc(-c2ccccc2)n1 [MK-28]
- % Enzyme Activity (relative to DMSO controls) (panel of 391 kinases [1]): 94.94%
- remaining activity at 1 µM (panel of 391 kinases [1]; [27]): 98.9%
- % Enzyme Activity (relative to DMSO controls) (panel of 391 kinases [2]): 71.56%
- remaining activity at 1 µM (panel of 391 kinases [2]; [27]): 74.1%
- % Enzyme Activity (relative to DMSO controls) (panel of 391 kinases [3]): 98.83%
- remaining activity at 1 µM (panel of 391 kinases [3]; [27]): 103%
- % Enzyme Activity (relative to DMSO controls) (panel of 391 kinases [4]): 89.76%
- remaining activity at 1 µM (panel of 391 kinases [4]; [27]): 92.7%
- % Enzyme Activity (relative to DMSO controls) (panel of 391 kinases [5]): 107.79%
- remaining activity at 1 µM (panel of 391 kinases [5]; [27]): 108%
- % Enzyme Activity (relative to DMSO controls) (panel of 391 kinases [6]): 100.42%
- remaining activity at 1 µM (panel of 391 kinases [6]; [27]): 102%
- % Enzyme Activity (relative to DMSO controls) (panel of 391 kinases [7]): 93.01%
- remaining activity at 1 µM (panel of 391 kinases [7]; [27]): 94.1%
- % Enzyme Activity (relative to DMSO controls) (panel of 391 kinases [8]): 95.37%
- remaining activity at 1 µM (panel of 391 kinases [8]; [27]): 97.8%
- % Enzyme Activity (relative to DMSO controls) (panel of 391 kinases [9]): 101.40%
- remaining activity at 1 µM (panel of 391 kinases [9]; [27]): 102%
- % Enzyme Activity (relative to DMSO controls) (panel of 391 kinases [10]): 87.19%
- remaining activity at 1 µM (panel of 391 kinases [10]; [27]): 91.2%
- % Enzyme Activity (relative to DMSO controls) (panel of 391 kinases [11]): 97.83%
- remaining activity at 1 µM (panel of 391 kinases [11]; [27]): 98.1%
- % Enzyme Activity (relative to DMSO controls) (panel of 391 kinases [12]): 95.85%
- remaining activity at 1 µM (panel of 391 kinases [12]; [27]): 95.9%
- % Enzyme Activity (relative to DMSO controls) (panel of 391 kinases [13]): 96.03%
- remaining activity at 1 µM (panel of 391 kinases [13]; [27]): 101%
- % Enzyme Activity (relative to DMSO controls) (panel of 391 kinases [14]): 92.07%
- remaining activity at 1 µM (panel of 391 kinases [14]; [27]): 94.7%
- % Enzyme Activity (relative to DMSO controls) (panel of 391 kinases [15]): 112.74%
- remaining activity at 1 µM (panel of 391 kinases [15]; [27]): 113%
- % Enzyme Activity (relative to DMSO controls) (panel of 391 kinases [16]): 100.80%
- remaining activity at 1 µM (panel of 391 kinases [16]; [27]): 101%
- % Enzyme Activity (relative to DMSO controls) (panel of 391 kinases [17]): 98.55%
- remaining activity at 1 µM (panel of 391 kinases [17]; [27]): 99%
- % Enzyme Activity (relative to DMSO controls) (panel of 391 kinases [18]): 100.96%
- remaining activity at 1 µM (panel of 391 kinases [18]; [27]): 101%
- % Enzyme Activity (relative to DMSO controls) (panel of 391 kinases [19]): 95.61%
- remaining activity at 1 µM (panel of 391 kinases [19]; [27]): 95.6%
- % Enzyme Activity (relative to DMSO controls) (panel of 391 kinases [20]): 91.77%
- remaining activity at 1 µM (panel of 391 kinases [20]; [27]): 93.8%
- % Enzyme Activity (relative to DMSO controls) (panel of 391 kinases [21]): 104.23%
- remaining activity at 1 µM (panel of 391 kinases [21]; [27]): 105%
- % Enzyme Activity (relative to DMSO controls) (panel of 391 kinases [22]): 92.67%
- remaining activity at 1 µM (panel of 391 kinases [22]; [27]): 94%
- % Enzyme Activity (relative to DMSO controls) (panel of 391 kinases [23]): 100.96%
- remaining activity at 1 µM (panel of 391 kinases [23]; [27]): 107%
- % Enzyme Activity (relative to DMSO controls) (panel of 391 kinases [24]): 97.57%
- remaining activity at 1 µM (panel of 391 kinases [24]; [27]): 98.6%
- % Enzyme Activity (relative to DMSO controls) (panel of 391 kinases [25]): 102.49%
- remaining activity at 1 µM (panel of 391 kinases [25]; [27]): 104%
- % Enzyme Activity (relative to DMSO controls) (panel of 391 kinases [26]): 95.45%
- remaining activity at 1 µM (panel of 391 kinases [26]; [27]): 97.6%
